Assays:
[1] = target: human insulin receptor type B (IR(B)) (Homo sapiens, UniProt P06213); assay: IR binding assay, scintillation proximity assay on cell membranes (Method D); settings: Method D: SPA IR binding assay; IP = inflection point
Method: Method D: IR binding assay was run in a scintillation proximity assay (SPA) in 384-well format using cell membranes prepared from CHO cells overexpressing human IR(B) grown in F12 media containing 10% FBS and antibiotics (G418, Penicillin/Strepavidin). Cell membranes were prepared in 50 mM Tris buffer, pH 7.8 containing 5 mM MgCl2. The assay buffer contained 50 mM Tris buffer, pH 7.5, 150 mM NaCl, 1 mM CaCl2, 5mgCl2, 0.1% BSA and protease inhibitors (Complete-Mini-Roche). Cell membranes were added to WGA PVT PEI SPA beads (5 mg/mL final concentration) followed by addition of IOC molecules at appropriate concentrations.

[2] = target: T1, Human macrophage mannose receptor 1 (MRC1) (Homo sapiens, UniProt P22897); assay: MRC1 competition binding assay with Eu-mannosylated-BSA; settings: Method F: 384-well plate; IP = inflection point; read-out: MRC1 Binding IP
T1 sequence (P22897 19-1456): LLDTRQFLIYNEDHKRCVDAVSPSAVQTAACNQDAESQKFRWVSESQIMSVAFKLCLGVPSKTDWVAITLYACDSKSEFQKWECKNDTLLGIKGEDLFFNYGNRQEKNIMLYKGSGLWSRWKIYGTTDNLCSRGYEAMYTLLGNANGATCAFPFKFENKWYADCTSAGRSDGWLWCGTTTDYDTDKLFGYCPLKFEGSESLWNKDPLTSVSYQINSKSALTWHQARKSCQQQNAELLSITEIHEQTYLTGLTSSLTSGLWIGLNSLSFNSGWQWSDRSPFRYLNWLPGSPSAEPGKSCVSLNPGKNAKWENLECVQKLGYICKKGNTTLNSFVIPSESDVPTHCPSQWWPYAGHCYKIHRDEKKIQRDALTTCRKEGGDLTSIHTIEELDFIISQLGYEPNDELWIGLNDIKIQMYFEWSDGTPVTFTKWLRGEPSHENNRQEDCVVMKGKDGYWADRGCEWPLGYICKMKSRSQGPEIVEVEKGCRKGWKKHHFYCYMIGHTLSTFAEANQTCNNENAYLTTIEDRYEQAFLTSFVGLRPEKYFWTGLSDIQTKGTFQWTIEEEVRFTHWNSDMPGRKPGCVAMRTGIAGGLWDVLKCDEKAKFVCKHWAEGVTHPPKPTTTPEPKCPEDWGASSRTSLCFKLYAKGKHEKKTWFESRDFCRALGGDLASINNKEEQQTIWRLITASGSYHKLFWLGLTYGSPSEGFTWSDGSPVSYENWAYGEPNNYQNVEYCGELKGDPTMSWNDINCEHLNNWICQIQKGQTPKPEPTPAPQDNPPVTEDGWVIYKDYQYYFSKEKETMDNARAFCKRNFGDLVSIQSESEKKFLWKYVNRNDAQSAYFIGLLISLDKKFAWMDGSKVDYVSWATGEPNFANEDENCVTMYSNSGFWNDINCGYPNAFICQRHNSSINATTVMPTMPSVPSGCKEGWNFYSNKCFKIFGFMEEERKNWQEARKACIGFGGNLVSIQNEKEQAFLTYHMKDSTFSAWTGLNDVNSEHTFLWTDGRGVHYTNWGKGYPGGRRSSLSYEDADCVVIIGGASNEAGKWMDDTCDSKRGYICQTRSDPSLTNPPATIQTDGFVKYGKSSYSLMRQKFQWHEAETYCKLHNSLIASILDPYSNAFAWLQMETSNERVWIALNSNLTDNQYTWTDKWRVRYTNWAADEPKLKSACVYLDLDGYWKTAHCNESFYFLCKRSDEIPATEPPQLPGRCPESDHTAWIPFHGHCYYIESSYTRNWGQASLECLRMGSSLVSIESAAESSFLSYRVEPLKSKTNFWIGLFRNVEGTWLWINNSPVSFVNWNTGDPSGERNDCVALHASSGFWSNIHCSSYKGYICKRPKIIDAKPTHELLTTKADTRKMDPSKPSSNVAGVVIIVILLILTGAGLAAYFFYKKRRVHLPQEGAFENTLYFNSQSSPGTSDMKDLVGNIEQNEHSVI

human IR(B) = human IR(B) (Homo sapiens, UniProt P06213); assay: Insulin receptor phosphorylation assay (MSD pIR); format: cell-based; settings: Method B: IR phosphorylation assay, 384-well with automated liquid dispense; CHO cells expressing human IR(B); IP = inflection point; read-out: IR Activation IP
Sequence of human IR(B) (P06213 28-758 limits assumed): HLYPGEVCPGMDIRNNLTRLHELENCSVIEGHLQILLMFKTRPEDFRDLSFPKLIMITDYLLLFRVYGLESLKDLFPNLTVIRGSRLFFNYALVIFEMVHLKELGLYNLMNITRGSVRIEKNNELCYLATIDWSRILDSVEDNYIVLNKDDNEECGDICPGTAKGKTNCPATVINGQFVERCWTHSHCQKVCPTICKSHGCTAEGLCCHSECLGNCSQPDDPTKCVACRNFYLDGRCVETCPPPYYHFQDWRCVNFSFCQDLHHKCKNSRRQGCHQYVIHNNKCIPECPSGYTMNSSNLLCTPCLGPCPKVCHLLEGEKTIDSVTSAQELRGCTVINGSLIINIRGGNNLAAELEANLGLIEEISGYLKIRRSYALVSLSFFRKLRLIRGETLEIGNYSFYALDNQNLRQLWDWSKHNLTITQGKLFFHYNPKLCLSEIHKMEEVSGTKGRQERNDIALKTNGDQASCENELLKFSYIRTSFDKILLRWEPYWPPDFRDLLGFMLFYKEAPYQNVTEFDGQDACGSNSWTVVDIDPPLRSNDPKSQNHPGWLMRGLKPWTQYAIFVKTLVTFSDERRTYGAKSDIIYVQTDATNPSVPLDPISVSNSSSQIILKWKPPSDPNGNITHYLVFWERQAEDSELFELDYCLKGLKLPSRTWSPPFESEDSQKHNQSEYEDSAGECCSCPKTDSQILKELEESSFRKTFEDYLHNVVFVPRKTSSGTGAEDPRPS
Sequence of human IR(B) (P06213 763-1382 partner limits assumed): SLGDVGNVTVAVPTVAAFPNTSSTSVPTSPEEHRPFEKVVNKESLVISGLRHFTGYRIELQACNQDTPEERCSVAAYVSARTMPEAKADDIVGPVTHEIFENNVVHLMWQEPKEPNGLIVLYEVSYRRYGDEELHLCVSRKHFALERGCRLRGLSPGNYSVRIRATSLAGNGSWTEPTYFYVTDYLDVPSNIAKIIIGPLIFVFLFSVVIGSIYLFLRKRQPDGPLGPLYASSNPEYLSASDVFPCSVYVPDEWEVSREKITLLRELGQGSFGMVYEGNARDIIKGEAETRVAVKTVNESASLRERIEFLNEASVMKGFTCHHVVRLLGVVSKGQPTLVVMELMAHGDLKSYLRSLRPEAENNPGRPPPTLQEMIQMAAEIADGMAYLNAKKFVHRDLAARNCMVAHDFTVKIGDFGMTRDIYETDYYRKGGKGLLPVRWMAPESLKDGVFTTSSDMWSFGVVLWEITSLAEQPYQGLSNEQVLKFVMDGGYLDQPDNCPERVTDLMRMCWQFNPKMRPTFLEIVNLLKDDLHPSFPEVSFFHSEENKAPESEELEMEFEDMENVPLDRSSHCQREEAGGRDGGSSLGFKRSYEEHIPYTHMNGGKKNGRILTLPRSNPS
Method: CHO cells stably expressing human IR(B) were in grown in F12 cell media containing 10% FBS and antibiotics (G418, Penicillin/Strepavidin) for at least 8 hr, and then serum starved by switching to F12 media containing 0.5% BSA (insulin-free) in place of FBS for overnight growth. Cells were harvested and frozen in aliquots for use in the MSD pIR assay. Briefly, the frozen cells were plated in either 96-well (40,000 cells/well, Methods A) or 384-well (10,000 cells/well, Method B) clear tissue culture plates and allowed to recover. IOC molecules at the appropriate concentrations were added and the cells incubated for 8 min at 37° C. The media was aspirated and chilled MSD cell lysis buffer was added as per MSD kit instructions. The cells were lysed on ice for 40 min and the lysate then mixed for 10 min at rt. The lysate was transferred to the MSD kit pIR detection plates. The remainder of the assay was carried out following the MSD kit recommended protocol.
The in vitro biological activities towards insulin receptor (IR) were measured by either ligand competition assays or functional phosphorylation assays, as described above, labeled as following: Method A: IR phosphorylation assay based on 96-well; Method B: IR phosphorylation assay based on 384-well with automated liquid dispense; Method C: cell-based IR binding assay; Method D: SPA IR binding assay method E; Method E: MRC1 assay was performed in a 96-well plate; Method F: MRC1 assay was performed in a 384-well plate.

Sequence of human insulin receptor type B (IR(B)) (P06213 28-758 limits assumed): as the sequence (P06213 28-758 limits assumed) above
Sequence of human insulin receptor type B (IR(B)) (P06213 763-1382 partner limits assumed): as the sequence (P06213 763-1382 partner limits assumed) above

CC(=O)[C@H](CCCCN)NC(=O)CCCCCNC(=O)[C@H](CCCCNC(=O)CCCCCNC(=O)CN(CC(=O)NCCO[C@H]1O[C@H](CO[C@H]2O[C@H](CO)[C@@H](O)[C@H](O)[C@@H]2O)[C@@H](O)[C@H](O[C@H]2O[C@H](CO)[C@@H](O)[C@H](O)[C@@H]2O)[C@@H]1O)CC(=O)NCCO[C@H]1O[C@H](CO[C@H]2O[C@H](CO)[C@@H](O)[C@H](O)[C@@H]2O)[C@@H](O)[C@H](O[C@H]2O[C@H](CO)[C@@H](O)[C@H](O)[C@@H]2O)[C@@H]1O)NC(=O)[C@H](CCCCNC(=O)CCCCCNC(=O)CN(CC(=O)NCCO[C@H]1O[C@H](CO[C@H]2O[C@H](CO)[C@@H](O)[C@H](O)[C@@H]2O)[C@@H](O)[C@H](O[C@H]2O[C@H](CO)[C@@H](O)[C@H](O)[C@@H]2O)[C@@H]1O)CC(=O)NCCO[C@H]1O[C@H](CO[C@H]2O[C@H](CO)[C@@H](O)[C@H](O)[C@@H]2O)[C@@H](O)[C@H](O[C@H]2O[C@H](CO)[C@@H](O)[C@H](O)[C@@H]2O)[C@@H]1O)NC(=O)CCCCCNC(=O)CN(CC(=O)NCCO[C@H]1O[C@H](CO[C@H]2O[C@H](CO)[C@@H](O)[C@H](O)[C@@H]2O)[C@@H](O)[C@H](O[C@H]2O[C@H](CO)[C@@H](O)[C@H](O)[C@@H]2O)[C@@H]1O)CC(=O)NCCO[C@H]1O[C@H](CO[C@H]2O[C@H](CO)[C@@H](O)[C@H](O)[C@@H]2O)[C@@H](O)[C@H](O[C@H]2O[C@H](CO)[C@@H](O)[C@H](O)[C@@H]2O)[C@@H]1O [IOC-42]
IC50 [1]: 1.95 nM
IC50 [2]: 1.99 nM
EC50 (human IR(B)): 1.72 nM

CC(=O)[C@H](CCCCN)NC(=O)CCCCCNC(=O)[C@H](CCCCNC(=O)CCCCC(=O)NCCCC[C@@H](C(=O)NCCO[C@@H]1O[C@@H](C)[C@@H](O)[C@@H](O)[C@@H]1O)N(CC(=O)NCCO[C@@H]1O[C@@H](C)[C@@H](O)[C@@H](O)[C@@H]1O)CC(=O)NCCO[C@@H]1O[C@@H](C)[C@@H](O)[C@@H](O)[C@@H]1O)NC(=O)[C@H](CCCCNC(=O)CCCCC(=O)NCCCC[C@@H](C(=O)NCCO[C@@H]1O[C@@H](C)[C@@H](O)[C@@H](O)[C@@H]1O)N(CC(=O)NCCO[C@@H]1O[C@@H](C)[C@@H](O)[C@@H](O)[C@@H]1O)CC(=O)NCCO[C@@H]1O[C@@H](C)[C@@H](O)[C@@H](O)[C@@H]1O)NC(=O)CCCCC(=O)NCCCC[C@@H](C(=O)NCCO[C@@H]1O[C@@H](C)[C@@H](O)[C@@H](O)[C@@H]1O)N(CC(=O)NCCO[C@@H]1O[C@@H](C)[C@@H](O)[C@@H](O)[C@@H]1O)CC(=O)NCCO[C@@H]1O[C@@H](C)[C@@H](O)[C@@H](O)[C@@H]1O [IOC-58]
IC50 [2]: 0.87 nM
EC50 (human IR(B)): 1.17 nM

CC(=O)[C@H](CCCCN)NC(=O)CCCCC(=O)NCC(=O)N[C@@H](CCC(=O)N[C@@H](CCC(=O)NCCCCCC(=O)N(CC(=O)NCCO[C@H]1O[C@H](CO)[C@@H](O)[C@H](O)[C@@H]1O)CC(=O)NCCO[C@@H]1O[C@@H](C)[C@@H](O)[C@@H](O)[C@@H]1O)C(=O)NCCCCCC(=O)N(CC(=O)NCCO[C@H]1O[C@H](CO)[C@@H](O)[C@H](O)[C@@H]1O)CC(=O)NCCO[C@@H]1O[C@@H](C)[C@@H](O)[C@@H](O)[C@@H]1O)C(=O)NCCCCCC(=O)N(CC(=O)NCCO[C@H]1O[C@H](CO)[C@@H](O)[C@H](O)[C@@H]1O)CC(=O)NCCO[C@@H]1O[C@@H](C)[C@@H](O)[C@@H](O)[C@@H]1O [IOC-50]
IC50 [2]: 13.1 nM
EC50 (human IR(B)): 0.84 nM

Reference: patent US12427187B2, “Glucose-responsive insulin conjugates” (priority 2019, dated 2025)
